Literature values in patent publication US11285184B2, “Cannabidiol alkaline composition” (CHIROSYN DISCOVERY TECHNOLOGIES INC., priority 2018, dated 2022).

Details: CBD dissolved in sulfuric acid/acetic acid

C=C(C)[C@@H]1CCC(C)=C[C@H]1c1c(O)cc(CCCCC)cc1O [CBD, 2-[1R-3-methyl-6R-(1-methylethenyl)-2-cyclohexen-1-yl]-5-pentyl-1,3-benzenediol]
Δ-8-THC formed from CBD: 2%
Δ-9-THC formed from CBD: 52%
